Reference: patent US20250263370A1 (Tay Therapeutics Limited, priority 2022, published 2025)
“And” between values parts separate entries of the source, which are not always exact repeats. Equal entries are not always repeated.

Test system: collagen-induced arthritis
Experiment: Collagen-induced arthritis (CIA) model in rats: body weight, paw volume, clinical scores, clinical observations; for Average detailed clinical score, left hind limb: key of the grades not given here; for Average detailed clinical score, right hind limb: key of the grades not given here; for Detailed Clinical Scores, left forelimb: key of the grades not given here; for Detailed Clinical Scores, left hind limb: key of the grades not given here; for Detailed Clinical Scores, right forelimb: key of the grades not given here; for Detailed Clinical Scores, right hind limb: key of the grades not given here; for Detailed Clinical Scores, score: key of the grades not given here; for Detailed Clinical Scores: left forelimb: key of the grades not given here; for Detailed Clinical Scores: left hind limb: key of the grades not given here; for Detailed Clinical Scores: right forelimb: key of the grades not given here; for Detailed Clinical Scores: right hind limb: key of the grades not given here; for Detailed Clinical Scores: score: key of the grades not given here; for Mean overall clinical score ± SD: key of the grades not given here; for overall clinical score: key of the grades not given here
Settings: for Mean animal paw volume ± SD: group mean; for Animal paw volume percent change: individual animals; for Average detailed clinical score, left forelimb / Average detailed clinical score, left hind limb / Average detailed clinical score, right forelimb / Average detailed clinical score, right hind limb / Average detailed clinical score, score / Mean overall clinical score ± SD / Detailed Clinical Scores, left forelimb / Detailed Clinical Scores, left hind limb / Detailed Clinical Scores, right forelimb / Detailed Clinical Scores, right hind limb / Detailed Clinical Scores, score / Overall clinical score / Detailed Clinical Scores: left forelimb / Detailed Clinical Scores: left hind limb / Detailed Clinical Scores: right forelimb / Detailed Clinical Scores: right hind limb / Detailed Clinical Scores: score: CIA rats; for Detailed Clinical Scores, left forelimb / Detailed Clinical Scores, left hind limb / Detailed Clinical Scores, right forelimb / Detailed Clinical Scores, right hind limb / Detailed Clinical Scores, score / Detailed Clinical Scores: left forelimb / Detailed Clinical Scores: left hind limb / Detailed Clinical Scores: right forelimb / Detailed Clinical Scores: right hind limb / Detailed Clinical Scores: score: individual animals ID 1-8; for Overall clinical score: individual animals #1-8

CNC(=O)c1cc(C(=O)NC2CC2)cn(Cc2ccccc2)c1=O [GSK620]
Mean animal paw volume ± SD (Day 13, L paw): 1.38 mL
Animal paw volume percent change (Day 13, L paw): 5.12% and 1.52% and 12.65% and −0.73% and 4.01% and 2.25% and 4.56% and 3.33%
Mean animal paw volume ± SD (Day 13, R paw): 1.41 mL
Animal paw volume percent change (Day 13, R paw): 9.84% and 3.07% and 10.98% and 14.65% and 3.66% and 3.02% and 6.04% and 3.75%
Average detailed clinical score, left forelimb (Day 13): 0.00
Average detailed clinical score, left hind limb (Day 13): 0.00
Average detailed clinical score, right forelimb (Day 13): 0.00
Average detailed clinical score, right hind limb (Day 13): 0.13
Average detailed clinical score, score (Day 13): 0.13
Mean overall clinical score ± SD (Day 13): 0 ± 0
Detailed Clinical Scores, left forelimb (Day 13): 0
Detailed Clinical Scores, left hind limb (Day 13): 0
Detailed Clinical Scores, right forelimb (Day 13): 0
Detailed Clinical Scores, right hind limb (Day 13): 0 (7×) and 1
Detailed Clinical Scores, score (Day 13): 0 (7×) and 1
Overall clinical score (Day 13): 0 (7×) and 1
Mean animal paw volume ± SD (Day 14, L paw): 1.55 mL
Animal paw volume percent change (Day 14, L paw): 21.65% and 34.98% and 13.44% and −0.37% and 4.01% and 4.87% and 31.18% and 27.78%
Mean animal paw volume ± SD (Day 14, R paw): 1.67 mL
Animal paw volume percent change (Day 14, R paw): 37.01% and 14.18% and 12.55% and 54.58% and 4.40% and 3.77% and 49.81% and 36.70%
Average detailed clinical score, left forelimb (Day 14): 0.00
Average detailed clinical score, left hind limb (Day 14): 0.88
Average detailed clinical score, right forelimb (Day 14): 0.00
Average detailed clinical score, right hind limb (Day 14): 1.13
Average detailed clinical score, score (Day 14): 2.00
Mean overall clinical score ± SD (Day 14): 2 ± 2
Detailed Clinical Scores, left forelimb (Day 14): 0
Detailed Clinical Scores, left hind limb (Day 14): 1 and 2 (3×) and 0 (4×)
Detailed Clinical Scores, right forelimb (Day 14): 0
Detailed Clinical Scores, right hind limb (Day 14): 2 (3×) and 0 (4×) and 3
Detailed Clinical Scores, score (Day 14): 3 (2×) and 2 and 0 (3×) and 4 (2×)
Overall clinical score (Day 14): 3 (2×) and 2 and 0 (3×) and 4 (2×)
Mean animal paw volume ± SD (Day 15, L paw): 1.74 mL
Animal paw volume percent change (Day 15, L paw): 60.24% and 53.99% and 9.49%
Mean animal paw volume ± SD (Day 15, R paw): 1.86 mL
Animal paw volume percent change (Day 15, R paw): 61.02% and 59.00% and 7.84%
Average detailed clinical score, left forelimb (Day 15): 0.00
Average detailed clinical score, left hind limb (Day 15): 1.63
Average detailed clinical score, right forelimb (Day 15): 0.00
Average detailed clinical score, right hind limb (Day 15): 2.00
Average detailed clinical score, score (Day 15): 3.63
Mean overall clinical score ± SD (Day 15): 4 ± 2
Detailed Clinical Scores: left forelimb (Day 15): 0
Detailed Clinical Scores: left hind limb (Day 15): 3 (3×) and 0 (2×) and 1 (2×) and 2
Detailed Clinical Scores: right forelimb (Day 15): 0
Detailed Clinical Scores: right hind limb (Day 15): 3 (3×) and 0 (2×) and 4 and 1 and 2
Detailed Clinical Scores: score (Day 15): 6 (3×) and 0 and 4 (2×) and 1 and 2
Overall clinical score (Day 15): 6 (3×) and 0 and 4 (2×) and 1 and 2
Mean animal paw volume ± SD (Day 18, L paw): 2.48 mL
Animal paw volume percent change (Day 18, L paw): 113.78% and 92.78% and 88.54%
Mean animal paw volume ± SD (Day 18, R paw): 2.35 mL
Animal paw volume percent change (Day 18, R paw): 105.91% and 87.36% and 88.63%
Average detailed clinical score, left forelimb (Day 18): 0.00
Average detailed clinical score, left hind limb (Day 18): 3.88
Average detailed clinical score, right forelimb (Day 18): 0.00
Average detailed clinical score, right hind limb (Day 18): 3.38
Average detailed clinical score, score (Day 18): 7.25
Mean overall clinical score ± SD (Day 18): 7 ± 1
Detailed Clinical Scores: left forelimb (Day 18): 0
Detailed Clinical Scores: left hind limb (Day 18): 4 (7×) and 3
Detailed Clinical Scores: right forelimb (Day 18): 0
Detailed Clinical Scores: right hind limb (Day 18): 4 (6×) and 0 and 3
Detailed Clinical Scores: score (Day 18): 8 (6×) and 4 and 6
Overall clinical score (Day 18): 8 (6×) and 4 and 6
Mean animal paw volume ± SD (Day 19, L paw): 2.54 mL
Animal paw volume percent change (Day 19, L paw): 112.99% and 92.78%
Mean animal paw volume ± SD (Day 19, R paw): 2.36 mL
Animal paw volume percent change (Day 19, R paw): 103.54% and 88.12%
Average detailed clinical score, left forelimb (Day 19): 0.75
Average detailed clinical score, left hind limb (Day 19): 3.63
Average detailed clinical score, right forelimb (Day 19): 0.25
Average detailed clinical score, right hind limb (Day 19): 3.00
Average detailed clinical score, score (Day 19): 7.63
Mean overall clinical score ± SD (Day 19): 8 ± 2
Detailed Clinical Scores: left forelimb (Day 19): 1 (6×) and 0 (2×)
Detailed Clinical Scores: left hind limb (Day 19): 4 (5×) and 3 (3×)
Detailed Clinical Scores: right forelimb (Day 19): 0 (6×) and 1 (2×)
Detailed Clinical Scores: right hind limb (Day 19): 4 (3×) and 3 (4×) and 0
Detailed Clinical Scores: score (Day 19): 9 (2×) and 10 and 6 and 5 and 7 (2×) and 8
Overall clinical score (Day 19): 9 (2×) and 10 and 6 and 5 and 7 (2×) and 8
Mean animal paw volume ± SD (Day 21, L paw): 2.53 mL
Animal paw volume percent change (Day 21, L paw): 112.99% and 90.49%
Mean animal paw volume ± SD (Day 21, R paw): 2.35 mL
Animal paw volume percent change (Day 21, R paw): 106.69% and 86.59%
Average detailed clinical score, left forelimb (Day 21): 0.88
Average detailed clinical score, left hind limb (Day 21): 3.63
Average detailed clinical score, right forelimb (Day 21): 0.25
Average detailed clinical score, right hind limb (Day 21): 3.13
Average detailed clinical score, score (Day 21): 7.88
Mean overall clinical score ± SD (Day 21): 8 ± 2
Detailed Clinical Scores: left forelimb (Day 21): 1 (5×) and 2 and 0 (2×)
Detailed Clinical Scores: left hind limb (Day 21): 4 (5×) and 3 (3×)
Detailed Clinical Scores: right forelimb (Day 21): 0 (6×) and 1 (2×)
Detailed Clinical Scores: right hind limb (Day 21): 4 (3×) and 3 (4×) and 1
Detailed Clinical Scores: score (Day 21): 9 (2×) and 11 and 6 (2×) and 7 (2×) and 8
Overall clinical score (Day 21): 9 (2×) and 11 and 6 (2×) and 7 (2×) and 8
